Test results taken from patent publication US20090232744A1, “Macrolide compositions having improved taste and stability” (priority 2008, published 2009).
Converted amounts (≈) assume the structure as drawn.

What was measured:
[1] = test system: Burkholderia cepacia ATCC 17759; assay: MIC, agar dilution method; format: cell-based; details: ATCC17759, Mueller-Hinton agar, aerobic, 16-20 h at 36° C.
From the text: (§1) The formulations prepared according to Examples 11, 12 and 13, were used to evaluate the Minimal Inhibitory Concentration (MIC) required to inhibit the growth of the following organisms: Burkholderia cepacia, Haemophilus influenzae, and Pseudomonas aeruginosa, using the agar dilution method based on DIN 58940 and 58944 according to NCCLS (National Committee on Clinical Laboratory Standards) criteria. […] To determine MIC, Petri dishes containing Mueller-Hinton agar supplemented with agar-agar, or chocolate agar were prepared. Dilutions of the formulations prepared under Examples 11, 12, 13 and 14 were prepared in aqua purificata, resulting in solutions containing 1000 μg drug per ml (with exception of the formulation only containing levofloxacin, where a dilution containing 640 μg/ml was prepared). […] Two agar plates were poured for each test concentration and culture medium. After solidification and drying, the agar plates were inoculated with the test organisms and incubated as described in Table 7. [table] The MIC was given as the lowest concentration of the active substance at which there was no macroscopically visible growth. Minimal, barely visible growth or few small individual colonies were evaluated as inhibition. The MIC readings are generally subject to an error of up to two dilutions. […] For Haemophilus spp., it was defined that a breakpoint ≦4 μg/ml is classified as susceptible.

[2] = test system: Haemophilus influenzae ATCC 49247; assay: MIC, agar dilution method; format: cell-based; details: for MIC: ATCC49247, Chocolat agar, microaerophile, 16-20 h at 36° C.
From the text: as §1

[3] = test system: Pseudomonas aeruginosa ATCC 9027; assay: MIC, agar dilution method; format: cell-based; details: ATCC9027, Mueller-Hinton agar, aerobic, 16-20 h at 36° C.
From the text: as §1

[4] = cited from earlier work
[5] = after single oral dose administration

| MIC [1] [µg/mL] | MIC [2] [µg/mL] | MIC [3] [µg/mL] | Structure (SMILES) | susceptibility classification [2] | concentration in sputum exceeds the plasma concentration ([4]; after multiple oral doses) [fold] | concentration in alveolar macrophages exceeds plasma concentration [4, 5] [fold] | concentration in bronchial mucosa exceeds plasma concentration [4, 5] [fold] |
| --- | --- | --- | --- | --- | --- | --- | --- |
| 50 (≈ 107 µM) | 50 (≈ 107 µM) | 0.781 (≈ 1.67 µM) | NC[C@H]1O[C@H](O[C@H]2[C@H](O)[C@@H](O[C@H]3O[C@H](CO)[C@@H](O)[C@H](N)[C@H]3O)[C@H](N)C[C@@H]2N)[C@H](N)C[C@@H]1O [Tobr., tobramycin] | resistant |  |  |  |
| 25 (≈ 33.4 µM) | 25 (≈ 33.4 µM) | 6.25 (≈ 8.34 µM) | CC[C@H]1OC(=O)[C@H](C)[C@@H](O[C@H]2C[C@@](C)(OC)[C@@H](O)[C@H](C)O2)[C@H](C)[C@@H](O[C@@H]2O[C@H](C)C[C@H](N(C)C)[C@H]2O)[C@](C)(O)C[C@@H](C)CN(C)[C@H](C)[C@@H](O)[C@]1(C)O [Azi., azithromycin] | resistant | 67 | 170 | 29 |
| 4 (≈ 11.1 µM) | 0.25 (≈ 0.692 µM) | 0.5 (≈ 1.38 µM) | C[C@H]1COc2c(N3CCN(C)CC3)c(F)cc3c(=O)c(C(=O)O)cn1c23 [Levo., levofloxacin] |  |  |  |  |
